Experimental data: publication PMC12495412, “Coumarin/nitrogen-bearing heterocyclic hybrid-loaded electrospun PMMA/PVP nanofibrous scaffolds for accelerating topical wound healing rates: synthesis and in vitro bio-evaluation” (RSC Advances, 2025)
≈ marks a conversion by molar mass, not a printed value. Where “and” joins values, the source holds several entries; their conditions need not be identical. Equal values may be shown once. Marks after values point to notes of the source that are not given here.

Assays:
[1] = system: multidrug-resistant human pathogens; assay: Agar-well diffusion of formulations, whole panel; type: cell-based; details: all human pathogens investigated
Description: (§1) The antimicrobial qualities of formulations were evaluated in this study using a variety of techniques. The formulations including 8 PMMA and 2 PVP, which contained varying doses of drug A (0.5% = T1, 1% = T2, 3% = T3, and 5% = T4) or drug B (0.5% = T5, 1% = T6, 3% = T7, and 5% = T8), as well as a combination of 2.5% of drug A and 2.5% of drug B (T9) were assessed. The tested human pathogens were cultivated in a nutritional broth medium containing 0.5% peptone, 0.3% yeast extract, 0.2% beef extract, 0.1% glucose, and 0.5% NaCl in accordance with 0.5 McFarland turbidity criteria.[25] To carry out the agar-well diffusion analysis, microbial cultures (100 μL) were spread on nutrient agar plates using sterile cotton swabs. After drilling each well with a sterile cork-borer of 5 mm in diameter, 50 μL of the tested formulations and the control (composed of 8 PMMA and 2 PVP) were loaded. Agar plates were thereafter left to incubate at 37 °C for an entire day. The inhibitory zone that surrounds each well was measured in millimeters (mm) using a ruler.[26]

Bacillus subtilis [2] = assay: Agar-well diffusion of formulations; type: cell-based; details: 50 μL per 5 mm well, 37 °C
Description: as §1

Candida krusei [3] = assay: Agar-well diffusion of formulations; type: cell-based; details: 50 μL per 5 mm well, 37 °C
Description: as §1

Candida albicans [4] = assay: Agar-well diffusion of formulations; type: cell-based; details: 50 μL per 5 mm well, 37 °C
Description: as §1

Staphylococcus aureus [5] = assay: Agar-well diffusion of formulations; type: cell-based; details: 50 μL per 5 mm well, 37 °C
Description: as §1

Bacillus cereus [6] = assay: Agar-well diffusion of formulations; type: cell-based; details: 50 μL per 5 mm well, 37 °C
Description: as §1

[7] = system: Staphylococcus epidermidis; assay: Agar-well diffusion of formulations; type: cell-based; details: 50 μL per 5 mm well, 37 °C
Description: as §1

Pseudomonas aeruginosa [8] = assay: Agar-well diffusion of formulations; type: cell-based; details: 50 μL per 5 mm well, 37 °C
Description: as §1

Klebsiella pneumoniae [9] = assay: Agar-well diffusion of formulations; type: cell-based; details: 50 μL per 5 mm well, 37 °C
Description: as §1

Candida glabrata [10] = assay: Agar-well diffusion of formulations; type: cell-based; details: 50 μL per 5 mm well, 37 °C
Description: as §1

Salmonella paratyphi [11] = assay: Agar-well diffusion of formulations; type: cell-based; details: 50 μL per 5 mm well, 37 °C
Description: as §1

Escherichia coli [12] = assay: Agar-well diffusion of formulations; type: cell-based; details: 50 μL per 5 mm well, 37 °C
Description: as §1

Candida parapsilosis [13] = assay: Agar-well diffusion of formulations; type: cell-based; details: 50 μL per 5 mm well, 37 °C
Description: as §1

Bacillus subtilis [14] = assay: Biofilm inhibition test (spectrophotometric); type: cell-based; details: 24 h, 37 °C, OD vs untreated
Description: (§2) Additionally, a spectrophotometric antibiofilm assay was utilized to determine whether the evaluated formulations might inhibit the growth of pathogens. Fresh nutritional broth was inoculated with each pathogen separately, and this mixture was then incubated at 37 °C at 200 rpm. The optical density (OD) at 600 nm was measured over a 6 h incubation period, allowing for an estimation of the starting microbe's exponential phase (3 × 10^7 CFU mL^−1). To produce treated cultures, 900 μL of planktonic cultures were collected aseptically with 100 μL of each formulation. Furthermore, untreated (formula-free) cultures of pathogens were grown as controls. The cultures were then incubated for 24 hours at 200 rpm and 37 °C. Through spectroscopic evaluation of microbial turbidity, the inhibitory effects of the examined formulations were determined.[27] By comparing the OD of the treated sample with the matching controls, anti-biofilm percentages for each formula were computed.[28]

Candida krusei [15] = assay: Biofilm inhibition test (spectrophotometric); type: cell-based; details: 24 h, 37 °C, OD vs untreated
Description: as §2

Candida albicans [16] = assay: Biofilm inhibition test (spectrophotometric); type: cell-based; details: 24 h, 37 °C, OD vs untreated
Description: as §2

Staphylococcus aureus [17] = assay: Biofilm inhibition test (spectrophotometric); type: cell-based; details: 24 h, 37 °C, OD vs untreated
Description: as §2

Bacillus cereus [18] = assay: Biofilm inhibition test (spectrophotometric); type: cell-based; details: 24 h, 37 °C, OD vs untreated
Description: as §2

[19] = system: Staphylococcus epidermidis; assay: Biofilm inhibition test (spectrophotometric); type: cell-based; details: 24 h, 37 °C, OD vs untreated
Description: as §2

Pseudomonas aeruginosa [20] = assay: Biofilm inhibition test (spectrophotometric); type: cell-based; details: 24 h, 37 °C, OD vs untreated
Description: as §2

Klebsiella pneumoniae [21] = assay: Biofilm inhibition test (spectrophotometric); type: cell-based; details: 24 h, 37 °C, OD vs untreated
Description: as §2

Candida glabrata [22] = assay: Biofilm inhibition test (spectrophotometric); type: cell-based; details: 24 h, 37 °C, OD vs untreated
Description: as §2

Salmonella paratyphi [23] = assay: Biofilm inhibition test (spectrophotometric); type: cell-based; details: 24 h, 37 °C, OD vs untreated
Description: as §2

Escherichia coli [24] = assay: Biofilm inhibition test (spectrophotometric); type: cell-based; details: 24 h, 37 °C, OD vs untreated
Description: as §2

Candida parapsilosis [25] = assay: Biofilm inhibition test (spectrophotometric); type: cell-based; details: 24 h, 37 °C, OD vs untreated
Description: as §2

all applied pathogens = assay: Agar-well diffusion of synthesized compounds, whole panel; type: cell-based
Excerpt: (§3) The antimicrobial activity of the prepared compounds was estimated through an agar-well diffusion method as adapted from the modified Kirby–Bauer protocol.[24] In this test, microbial pathogens were applied, including Staphylococcus aureus ATCC 25923 (S. aureus), Streptococcus mutans ATCC 25175 (S. mutans), Bacillus cereus ATCC 19637 (B. cereus), Bacillus aureus ATCC 25923 (B. aureus), Bacillus epidermidis ATCC 14990 (B. epidermidis), and Bacillus subtilis ATCC 11774 (B. subtilis) as Gram-positive bacteria, and Pseudomonas aeruginosa ATCC 27853 (P. aeruginosa), Klebsiella pneumonia ATCC 13883 (K. pneumonia), and Salmonella typhimurium ATCC 14028 (S. typhimurium), Salmonella pneumoniae ATCC 10031(S. pneumoniae), Escherichia coli ATCC 10536 (E. coli), and Salmonella paratyphi ATCC 9150 (S. paratyphi) as Gram-negative bacteria. Additionally, Candida albicans (ATCC 10231), Candida krusei ATCC 6258 (C. krusei), Candida glabrata ATCC 66032 (C. glabrata), andCandida parapsilosis ATCC 22019 (C. parapsilosis) were applied as models of unicellular fungi. The pre-inoculation cultures of the pathogens were prepared on Muller–Hinton broth and cultivated for 24 h at 37 °C. The agar-well test was prepared on Muller–Hinton agar with 100 μL of each pathogen pre-culture (0.5 McFarland conc.) and uniformly distributed on the plate surface. Under aseptic conditions, six wells were created on the agar surface using a sterile corkborer (9 mm). To each well, 100 μL of the prepared compound (10 mg mL^−1) was separately inserted into each plate. All plates were incubated for 24 h at 37 °C; the established inhibition zones (Halo-zones) surrounding the wells indicated positive antimicrobial activity and were stated as the radius of the inhibition zone (mm).

MDA cells = assay: MTT anticancer assay; type: cell-based, human; details: Homo sapiens, Breast carcinoma cell, 48 h
Excerpt: (§4) MTT assay: the normal cell line (Wi-38), colon cancer (Caco-2), lung cancer (A549), and breast cancer (MDA) cell lines were sourced from ATCC, USA. All different cell lines were cultivated and preserved in DMEM medium (SERANA, Germany), accompanied by 10% FBS (Gibco, USA) and 1% Pen/Strep solution (Lonza, USA). The newly prepared derivatives at various doses were considered for their anticancer activity and their safety on normal cells, applying MTT (3-[4, 5-dimethylthiazol]-2, 5-diphenyltetrazolium bromide) methods.[22] At first, all normal and cancer cell lines (1.0 ×10^4) were inoculated in 4 antiseptic 96-well tissue culture microplates and incubated for 24 h in a CO2 incubator. After cell attachments, the prepared derivatives were added to both normal Wi-38 cells at diverse concentrations of (6.25–200 μg mL^−1, 2-fold) and cancer cells at different concentrations of (3.125–100 μg mL^−1, 2-fold) in triplicate and incubated for another 48 h at 37 °C in a CO2 incubator with an adjusted concentration of 5%. After that, the treated cells were cleaned three times with PBS to remove debris and dead cells. Next, 200 μL of 0.5 mg mL^−1 MTT dye solution in PBS was mixed in each well, and the cells were further kept for 3 h at 37 °C in a 5% CO2 incubator. After that, MTT was removed and 200 μL of DMSO was added to each well. The optical density (OD) was recorded at 570 nm via a microplate reader (B.M.G. LabTech, Germany). Basic cells (untreated) were utilized as negative control cells, and 5-fluorouracil (5-FU) was included as a standard chemotherapy drug. The qualified cell viability (%) was evaluated as in equation (eqn (1)):1 Relative cell viability (%) = […] A1 is the OD of the examined derivative, A0 is the OD of the standard, and AU is the OD of the untreated cells.
(§5) Anticancer activity assay: the anticancer effect of each derivative was assessed by evaluating the half-maximal inhibitory concentration (IC50) value via the GraphPad Prism 7.0 software. However, SI (selective index) values of each derivative were estimated by splitting the IC50 value of healthy cells by the IC50 value of malignant cells, as previously reported.[23] The effects of the created derivatives on the morphology of MDA cells were evaluated at IC50 doses and captured by phase-contrast microscopy (Olympus, Germany) in comparison to untreated control cells.

A549 cells [26] = assay: MTT anticancer assay; type: cell-based, human; details: Homo sapiens, A549, lung carcinoma cells, 48 h
Excerpt: as §4, §5

S. aureus = assay: Agar-well diffusion of synthesized compounds; type: cell-based, Staphylococcus aureus ATCC 25923; details: Staphylococcus aureus, 100 μL of 10 mg mL^−1 per well, 24 h, 37 °C
Excerpt: as §3, with “Under aseptic conditions, six wells were created on the agar surface using a sterile corkborer (9 mm). To each well, 100 μL of the prepared compound (10 mg mL^−1) was separately inserted into each plate. All plates were incubated for 24 h at 37 °C; the established inhibition zones (Halo-zones) surrounding the wells indicated positive antimicrobial activity and were stated as the radius of the inhibition zone (mm).” left out

Caco-2 cells = assay: MTT anticancer assay; type: cell-based
Excerpt: as §4, §5

S. typhimurium = assay: Agar-well diffusion of synthesized compounds; type: cell-based, Salmonella typhimurium ATCC 14028; details: Salmonella enterica, 100 μL of 10 mg mL^−1 per well, 24 h, 37 °C
Excerpt: as §3, with “Under aseptic conditions, six wells were created on the agar surface using a sterile corkborer (9 mm). To each well, 100 μL of the prepared compound (10 mg mL^−1) was separately inserted into each plate. All plates were incubated for 24 h at 37 °C; the established inhibition zones (Halo-zones) surrounding the wells indicated positive antimicrobial activity and were stated as the radius of the inhibition zone (mm).” left out

S. mutans = assay: Agar-well diffusion of synthesized compounds; type: cell-based, Streptococcus mutans ATCC 25175; details: Streptococcus mutans, 100 μL of 10 mg mL^−1 per well, 24 h, 37 °C
Excerpt: as §3

Wi-38 cells = assay: MTT cytotoxicity assay, normal cells; type: cell-based; details: WI-38, normal human lung fibroblast cells, 48 h
Excerpt: as §4, §5

A549 cells [27] = assay: Wound healing scratch (anti-migration) assay; type: cell-based, human; details: IC50 doses, 48 h
Description: To assess the anti-migration inhibition capability of newly synthesized derivatives, a wound healing technique was employed. A549 cells were planted in 12-well plates and kept alive at 37 °C until they achieved 80–90% fluency. The cell monolayers were smashed with a sterile tip and exposed to the prepared derivatives at IC50 doses. At 0 and 48 h of treatment, the wound closure area was captured and calculated by imaging analysis with the Cell-Sens software (Olympus, Japan).

## O=C(Nc1ccc(Nc2c3ccccc3nc3ccccc23)cc1)c1cc2ccccc2oc1=O [Compound C3]
[1]
  Antimicrobial effect: only has an impact on a few examined yeast infections
Bacillus subtilis [2]
  Inhibition zone diameters: 0 mm
Candida krusei [3]
  Inhibition zone diameters: 0 mm
Candida albicans [4]
  Inhibition zone diameters: 9.29 ± 1.25^fg mm
Staphylococcus aureus [5]
  Inhibition zone diameters: 0 mm
Bacillus cereus [6]
  Inhibition zone diameters: 0 mm
[7]
  Inhibition zone diameters: 0 mm
Pseudomonas aeruginosa [8]
  Inhibition zone diameters: 0 mm
Klebsiella pneumoniae [9]
  Inhibition zone diameters: 0 mm
Candida glabrata [10]
  Inhibition zone diameters: 0 mm
Salmonella paratyphi [11]
  Inhibition zone diameters: 0 mm
Escherichia coli [12]
  Inhibition zone diameters: 0 mm
Candida parapsilosis [13]
  Inhibition zone diameters: 7.25 ± 2.33^fg mm
Bacillus subtilis [14]
  Biofilm reduction: 37.29 ± 2.84^h %
Candida krusei [15]
  Biofilm reduction: 29.91 ± 2.44^h %
Candida albicans [16]
  Biofilm reduction: 27.13 ± 3.96^h %
Staphylococcus aureus [17]
  Biofilm reduction: 31.25 ± 2.98^h %
Bacillus cereus [18]
  Biofilm reduction: 23.36 ± 2.96^h %
[19]
  Biofilm reduction: 34.71 ± 1.56^h %
Pseudomonas aeruginosa [20]
  Biofilm reduction: 22.35 ± 2.58^h %
Klebsiella pneumoniae [21]
  Biofilm reduction: 20.56 ± 2.65^h %
Candida glabrata [22]
  Biofilm reduction: 35.48 ± 2.58^h %
Salmonella paratyphi [23]
  Biofilm reduction: 22.55 ± 1.87^h %
Escherichia coli [24]
  Biofilm reduction: 20.93 ± 3.64^h %
Candida parapsilosis [25]
  Biofilm reduction: 25.79 ± 1.98^h %

## Cc1ccc(-c2nnc(Nc3ccc(NC(=O)c4cc5ccccc5oc4=O)cc3)c3ccccc23)cc1 [Compound C, 2-oxo-N-(4-((4-(p-tolyl)phthalazin-1-yl)amino)phenyl)-2H-chromene-3-carboxamide]
All applied pathogens
  Antimicrobial activity: wide-spectrum antibacterial activity
MDA cells
  IC50: 6.06 ± 0.81 µg/mL (≈ 12.2 µM)
A549 cells [26]
  IC50: 12.2 ± 1.36 µg/mL (≈ 24.4 µM)
S. aureus
  zone of inhibition at 10 mg/mL: ~19.5 mm
Caco-2 cells; Homo sapiens, Caco-2, colon carcinoma cells, MTT, 48 h
  IC50: 7.11 ± 1.68 µg/mL (≈ 14.3 µM)
Caco-2 cells; IC50 Wi-38 / IC50 Caco-2
  SI Caco-2: 19.25 ± 1.36
S. typhimurium
  zone of inhibition at 10 mg/mL: ~15.5 mm
S. mutans
  zone of inhibition at 10 mg/mL: ~17.2 mm
Wi-38 cells
  IC50: 137 ± 11.7 µg/mL (≈ 275 µM)
A549 cells [27]
  Migration inhibition: 74.45% and 79.09%
